Legend:
[1] = tested on: phosphorylated mTOR (p-mTOR); assay: Phosphorylation of mTOR in iRS cells; type: cell-based, human; settings: addition to conditioned medium, vs DMSO control
Protocol: (§1) CM is conditioned medium.
iRS cells were plated at a high density (1×10^6 cells) on a 3 cm dish coated with Matrigel, 0.5 mM VPA was added to the MEF-conditioned medium and culture was continued. […] Phosphorylation of mTOR then was measured.

iRS cells = assay: Conversion of iRS cells to DsRed-negative (pluripotent) cells in high-density culture; type: cell-based, human; settings: 0.5 mM added to MEF-conditioned medium, high-density culture (1×10^6 cells, 3 cm dish), day 6 after plating
Protocol: as §1
The iRS cells were plated at a high density (1×10^6 cells) on a 3 cm dish coated with Matrigel, and culture was continued in a MEF-conditioned medium. From day 3, DsRed-negative cells were occasionally found, and DsRed-negative cell clump could be confirmed on day 6. On day 10, ES cell-like colony could be confirmed (FIG. 3A). The expression levels of exogenous OCT4 and SOX2 at that time were confirmed by quantitative PCR. Expression of exogenous gene disappeared on day 6 of high-density culture, and re-expression was void thereafter (FIG. 3B). Furthermore, the expression levels of the endogenous OCT4, TDGF1 and ECAD were confirmed by quantitative PCR. As a result, expression of these pluripotent marker genes was confirmed (FIG. 3C). Similarly, the mRNA expression levels of other pluripotent marker genes were confirmed on a heat map. As a result, mostly similar gene expression profiles were confirmed on day 6 and day 10 (FIG. 3D). Moreover, SSEA4 and ECAD, which are surface antigen markers showing pluripotency, were tested by an immunostaining method. As a result, both surface antigens could be recognized from day 6 (FIG. 3E). […]
iRS cells were plated at a high density (1×10^6 cells) on a 3 cm dish coated with Matrigel, 0.5 mM VPA was added to the MEF-conditioned medium and culture was continued. […] Phosphorylation of mTOR then was measured. […]

## CCCC(CCC)C(=O)[O-].[Na+] [VPA, sodium valproate]
[1]
  amount of phosphorylated mTOR (p-mTOR): increased
iRS cells
  conversion rate to DsRed-negative cells: strikingly high

From patent US20150337267A1, “REPROGRAMMED STEM CELL” (KYOTO UNIVERSITY, priority 2013, published 2015)
